Reference: ChEMBL document CHEMBL1201862, “PubChem BioAssay data set” (2004)
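Tested at 5 concentrations; 48 h exposure; 96-well plates; endpoints linearly interpolated, else capped at highest concentration. GI50 = concentration required for 50% inhibition of growth.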 The source made the active and inactive calls. Cut-off read from the data, not from the text of the source: active = GI50 up to about 1.1 µM and inactive = higher.

Experiments:
Test in all cases: growth of human tumour cells (NCI), 48 h
[1] = system: EKVX
[2] = system: HL-60
[3] = system: HOP-62
[4] = system: HT-29
[5] = system: LOX IMVI
[6] = system: MCF7
[7] = system: MOLT-4
[8] = system: NCI-H23
[9] = system: NCI-H522
[10] = system: OVCAR-5
[11] = system: PC-3
[12] = system: SF-268
[13] = system: SF-295
[14] = system: SK-MEL-28
[15] = system: SK-MEL-2
[16] = system: SNB-19
[17] = system: SNB-75
[18] = system: T47D
[19] = system: UACC-257
[20] = system: UO-31

COc1cccc(-c2cc(O)c3cc(N4CCN(C)CC4)ccc3n2)c1
GI50 [1]: 3.37 µM (inactive) | GI50 [2]: 0.537 µM (active) | GI50 [3]: 1.64 µM (inactive) | GI50 [4]: 2.24 µM (inactive) | GI50 [5]: 1.73 µM (inactive) | GI50 [6]: 2.67 µM (inactive) | GI50 [7]: 2.91 µM (inactive) | GI50 [8]: 2.54 µM (inactive) | GI50 [9]: 1.57 µM (inactive) | GI50 [10]: 5.14 µM (inactive) | GI50 [11]: 2.44 µM (inactive) | GI50 [12]: 1.91 µM (inactive) | GI50 [13]: 1.71 µM (inactive) | GI50 [14]: 1.47 µM (inactive) | GI50 [15]: 1.19 µM (inactive) | GI50 [16]: 2.77 µM (inactive) | GI50 [17]: 5.3 µM (inactive) | GI50 [18]: > 10 µM (inactive) | GI50 [19]: 0.706 µM (active) | GI50 [20]: 6.9 µM (inactive)

N=C(N)NCCCC(NCc1c2ccccc2nc2ccccc12)C(=O)O (stereo not given)
GI50 [1]: 33.1 µM (inactive) | GI50 [2]: 11 µM (inactive) | GI50 [3]: 37.1 µM (inactive) | GI50 [4]: 18.9 µM (inactive) | GI50 [5]: 26.2 µM (inactive) | GI50 [6]: 32 µM (inactive) | GI50 [7]: 8 µM (inactive) | GI50 [8]: 53.1 µM (inactive) | GI50 [9]: 22.9 µM (inactive) | GI50 [10]: > 100 µM (inactive) | GI50 [11]: 35.2 µM (inactive) | GI50 [12]: 47.6 µM (inactive) | GI50 [13]: 48 µM (inactive) | GI50 [14]: > 66.7 µM (inactive) | GI50 [15]: 41 µM (inactive) | GI50 [16]: 48.4 µM (inactive) | GI50 [17]: 45.2 µM (inactive) | GI50 [18]: 36.2 µM (inactive) | GI50 [19]: 33.7 µM (inactive) | GI50 [20]: 23.6 µM (inactive)

Cc1cc2c(cc1C)NC1=C(O)C(c3c[nH]c4ccc(COc5ccccc5)cc34)OC1=N2 (stereo not given)
GI50 [1]: 37.8 µM (inactive) | GI50 [2]: > 100 µM (inactive) | GI50 [3]: 20.4 µM (inactive) | GI50 [4]: > 100 µM (inactive) | GI50 [5]: > 100 µM (inactive) | GI50 [6]: 72.1 µM (inactive) | GI50 [7]: 46.9 µM (inactive) | GI50 [8]: > 100 µM (inactive) | GI50 [9]: > 100 µM (inactive) | GI50 [10]: > 100 µM (inactive) | GI50 [11]: > 100 µM (inactive) | GI50 [12]: 64.9 µM (inactive) | GI50 [13]: 33.6 µM (inactive) | GI50 [14]: > 100 µM (inactive) | GI50 [15]: 58.2 µM (inactive) | GI50 [16]: 42.2 µM (inactive) | GI50 [17]: 14.9 µM (inactive) | GI50 [18]: > 100 µM (inactive) | GI50 [19]: 50 µM (inactive) | GI50 [20]: 79.8 µM (inactive)

CC12CCC3c4ccc(O)cc4CCC3C1C/C(=N\O)C2O (stereo not given)
GI50 [1]: 26.8 µM (inactive) | GI50 [2]: 92.9 µM (inactive) | GI50 [3]: > 100 µM (inactive) | GI50 [4]: 77.6 µM (inactive) | GI50 [5]: > 100 µM (inactive) | GI50 [6]: > 100 µM (inactive) | GI50 [7]: > 100 µM (inactive) | GI50 [8]: > 100 µM (inactive) | GI50 [9]: > 100 µM (inactive) | GI50 [10]: > 100 µM (inactive) | GI50 [11]: > 100 µM (inactive) | GI50 [12]: > 100 µM (inactive) | GI50 [13]: > 100 µM (inactive) | GI50 [14]: > 100 µM (inactive) | GI50 [15]: > 100 µM (inactive) | GI50 [16]: > 100 µM (inactive) | GI50 [17]: 36.8 µM (inactive) | GI50 [18]: > 100 µM (inactive) | GI50 [19]: > 100 µM (inactive) | GI50 [20]: > 100 µM (inactive)

Cn1c(=S)c2nc(SCc3cccnc3)[nH]c2n(C)c1=O
GI50 [1]: > 100 µM (inactive) | GI50 [2]: > 100 µM (inactive) | GI50 [3]: > 100 µM (inactive) | GI50 [4]: > 100 µM (inactive) | GI50 [5]: > 100 µM (inactive) | GI50 [6]: > 100 µM (inactive) | GI50 [7]: > 100 µM (inactive) | GI50 [8]: > 100 µM (inactive) | GI50 [9]: 82 µM (inactive) | GI50 [10]: > 100 µM (inactive) | GI50 [11]: > 100 µM (inactive) | GI50 [12]: > 100 µM (inactive) | GI50 [13]: 97.7 µM (inactive) | GI50 [14]: > 100 µM (inactive) | GI50 [15]: > 100 µM (inactive) | GI50 [16]: > 100 µM (inactive) | GI50 [17]: 96.8 µM (inactive) | GI50 [18]: > 100 µM (inactive) | GI50 [19]: > 100 µM (inactive) | GI50 [20]: > 100 µM (inactive)

O=C(COC(=O)c1ccccc1)c1ccc(Br)cc1
GI50 [1]: 14.7 µM (inactive) | GI50 [2]: 6.64 µM (inactive) | GI50 [3]: 18.5 µM (inactive) | GI50 [4]: 15.6 µM (inactive) | GI50 [5]: 3.06 µM (inactive) | GI50 [6]: 5.53 µM (inactive) | GI50 [7]: 3.29 µM (inactive) | GI50 [8]: 18.3 µM (inactive) | GI50 [9]: 1.63 µM (inactive) | GI50 [10]: 10.7 µM (inactive) | GI50 [11]: 16.3 µM (inactive) | GI50 [12]: 19.6 µM (inactive) | GI50 [13]: 15.8 µM (inactive) | GI50 [14]: 16.9 µM (inactive) | GI50 [15]: 12.2 µM (inactive) | GI50 [16]: 16.9 µM (inactive) | GI50 [17]: 16.4 µM (inactive) | GI50 [18]: 9.06 µM (inactive) | GI50 [19]: 15.5 µM (inactive) | GI50 [20]: 1.89 µM (inactive)

CC(C)CCCCCCCCCCCCC(=O)NCC(=O)NC1C(C)OC(Nc2[nH]cnc3ncnc2-3)C(O)C1O (stereo not given)
GI50 [1]: 0.00575 µM (active) | GI50 [2]: 0.000746 µM (active) | GI50 [3]: 0.000361 µM (active) | GI50 [4]: 0.00125 µM (active) | GI50 [5]: 0.000262 µM (active) | GI50 [6]: < 0.01 µM (active) | GI50 [7]: 0.00102 µM (active) | GI50 [8]: 0.00536 µM (active) | GI50 [9]: 0.00273 µM (active) | GI50 [10]: 0.00123 µM (active) | GI50 [11]: 0.00433 µM (active) | GI50 [12]: 0.000635 µM (active) | GI50 [13]: 0.00234 µM (active) | GI50 [14]: < 0.01 µM (active) | GI50 [15]: 0.00385 µM (active) | GI50 [16]: 0.0021 µM (active) | GI50 [17]: 0.000535 µM (active) | GI50 [18]: 0.00235 µM (active) | GI50 [19]: < 0.01 µM (active) | GI50 [20]: 0.000381 µM (active)
